Measured values from PubChem BioAssay AID330 (DTP/NCI, 2004).
Values joined by “and” are separate entries in the source; they are usually repeats but may differ in a detail not shown here. Equal entries are not always repeated. Inconclusive results and toxic doses are left out. Numbered stars: 1 amine (or outer) side, 2 acyl side, 3 side chain; on linkers, the order of the positions; unused ones are H or OH. Bridge positions count the residues as written; N and C are the ends. Square brackets hold non-standard residues; d marks the D form. Peptide text beside a SMILES is read from it. * marks the point of attachment. ξ: configuration not given here. X15 = O=C(/C(=C/c1c[nH]c2ccccc12)N[*:1])[*:2]; X16 = CC(c1c[nH]c2ccccc12)C(N[*:1])C(=O)[*:2]; βAsp = O=C(O)[CH](CC(=O)[*:2])N[*:1]; ξLeu(3ξ-OH) = CC(C)C(O)C(N)C(=O)O; X14 = O=C(C1C(O)CCN1[*:1])[*:2]; Cbz = O=C(OCc1ccccc1)*

System: P388 leukemia ip, CD2F1 mice, survival T/C
Experiment: NCI In Vivo Anticancer Drug Screen. Data for tumor model P388 Leukemia (intraperitoneal) in CD2F1 (CDF1) mice
Conditions: endpoint: median survival time, higher = longer survival
Summary of the method: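 Mice carrying the transplanted tumor received test compound or vehicle. Survival was recorded in each group, and the value is the treated-group measurement divided by that of the vehicle-treated control group.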

[1] = dose: 60.0 mg/kg/injection, schedule: Q01DX005 (ip), vehicle: saline with Tween-80
[2] = dose: 50.0 mg/kg/injection, schedule: Q01DX005 (ip), vehicle: saline with Tween-80
[3] = dose: 100.0 mg/kg/injection, schedule: Q01DX005 (ip), vehicle: saline with Tween-80
[4] = dose: 200.0 mg/kg/injection, schedule: Q01DX005 (ip), vehicle: saline with Tween-80
[5] = dose: 50.0 mg/kg/injection, schedule: Q01DX009 (ip), vehicle: Klucel (hydroxypropylcellulose) (HPC)
[6] = dose: 100.0 mg/kg/injection, schedule: Q01DX009 (ip), vehicle: Klucel (hydroxypropylcellulose) (HPC)
[7] = dose: 200.0 mg/kg/injection, schedule: Q01DX009 (ip), vehicle: Klucel (hydroxypropylcellulose) (HPC)
[8] = dose: 50.0 mg/kg/injection, schedule: Q01DX009 (ip), vehicle: saline
[9] = dose: 50.0 mg/kg/injection, schedule: Q01DX005 (ip), vehicle: Klucel (hydroxypropylcellulose) (HPC)
[10] = dose: 100.0 mg/kg/injection, schedule: Q01DX005 (ip), vehicle: Klucel (hydroxypropylcellulose) (HPC)
[11] = dose: 200.0 mg/kg/injection, schedule: Q01DX005 (ip), vehicle: Klucel (hydroxypropylcellulose) (HPC)

With `CCN(CC)Cc1c(C)nc2cc(N(C)C)ccc2c1Cl` the T/C [1] was 103 % of control.

For `Cc1ccc2ccccc2[n+]1CC(=O)c1ccc([N+](=O)[O-])cc1`, the T/C (dose: 6.25 mg/kg/injection, schedule: Q01DX005 (ip), vehicle: Klucel (hydroxypropylcellulose) (HPC)) was 108 % of control, the T/C (dose: 12.5 mg/kg/injection, schedule: Q01DX005 (ip), vehicle: Klucel (hydroxypropylcellulose) (HPC)) was 108 % of control and the T/C (dose: 25.0 mg/kg/injection, schedule: Q01DX005 (ip), vehicle: Klucel (hydroxypropylcellulose) (HPC)) was 103 % of control. For the same molecule, the T/C [2] was 96 % of control, the T/C [3] was 102 % of control and the T/C [4] was 111 % of control.

`Br[C](Br)(Br)[Hg][c]1ccccc1` was tested, and the T/C (dose: 3.13 mg/kg/injection, schedule: Q01DX009 (ip), vehicle: saline with Tween-80) was 106 % of control, the T/C (dose: 6.25 mg/kg/injection, schedule: Q01DX009 (ip), vehicle: saline with Tween-80) was 100 % of control and the T/C (dose: 12.5 mg/kg/injection, schedule: Q01DX009 (ip), vehicle: saline with Tween-80) was 104 % of control.

In the case of `N#Cc1ccc(NC(=O)CCCC(=O)Nc2ccc(C#N)c(C#N)c2)cc1C#N`, the T/C [5] is reported as 97 % of control, the T/C [6] is reported as 94 % of control and the T/C [7] is reported as 96 % of control.

`CC1NC(=O)C(C(C)O)NC(=O)C(NC(=O)C(CO)NC(=O)CC(N)C(=O)O)C(C)OC(=O)C2C(O)CCN2C(=O)C(C(O)C(C)C)NC(=O)C(C(C)c2c[nH]c3ccccc23)NC(=O)/C(=C/c2c[nH]c3ccccc23)NC(=O)C2C(O)CCN2C(=O)CNC1=O` (stereo unspecified) (βAsp-STTAG[X14][X15][X16][ξLeu(3ξ-OH)][X14]; ester 2-C; configuration not given here) was tested, and the T/C (dose: 100.0 mg/kg/injection, schedule: Q01DX009 (ip), vehicle: saline with Tween-80) was 105 % of control, the T/C (dose: 200.0 mg/kg/injection, schedule: Q01DX009 (ip), vehicle: saline with Tween-80) was 89 % of control and the T/C (dose: 400.0 mg/kg/injection, schedule: Q01DX009 (ip), vehicle: saline with Tween-80) was 91 % of control.

For `COC(=O)C1=COC(C)[C@H]2CN3CCc4c([nH]c5cc(OC)ccc45)C3CC12` (stereo partly specified), the T/C (dose: 15.0 mg/kg/injection, schedule: Q01DX005 (ip), vehicle: saline with Tween-80) was 92 % of control, the T/C (dose: 30.0 mg/kg/injection, schedule: Q01DX005 (ip), vehicle: saline with Tween-80) was 91 % of control and the T/C [1] was 88 % of control.

In the case of `C=C1CC2(C=C(C)CCC2C(C)C)OC1=O` (stereo unspecified), the T/C (dose: 100.0 mg/kg/injection, schedule: Q01DX001 (ip), vehicle: saline) is reported as 101 % of control, the T/C (dose: 200.0 mg/kg/injection, schedule: Q01DX001 (ip), vehicle: saline) is reported as 101 % of control and the T/C (dose: 400.0 mg/kg/injection, schedule: Q01DX001 (ip), vehicle: saline) is reported as 101 % of control.

`CCCCCCCCCCCCSCCSCCC` was tested, and the T/C [8] was 90 % of control, the T/C (dose: 100.0 mg/kg/injection, schedule: Q01DX009 (ip), vehicle: saline) was 100 % of control and the T/C (dose: 200.0 mg/kg/injection, schedule: Q01DX009 (ip), vehicle: saline) was 90 % of control.

For `CCOc1ccc2c(c1)/C(=C\C=C\C1CC(C)C3CC(OCC)CCC3N1CC)CC(C)N2CC` (stereo unspecified), the T/C (dose: 1.25 mg/kg/injection, schedule: Q01DX009 (ip), vehicle: saline + alcohol) was 120 % of control.

For `CSc1ncnc2c1ncn2C(SC)C(OC(C)=O)C(OC(C)=O)C(OC(C)=O)C(COC(C)=O)OC(C)=O` (stereo unspecified), the T/C [2] was 96 % of control, the T/C [3] was 97 % of control and the T/C [4] was 102 % of control.

With `COC1/C=C\C=C(/C)C(=O)NC2=CC(=O)C=C(C2=O)C(OC)C(C)CC(OC)C(OC)C(C)/C=C(/C)C1OC(N)=O` (stereo unspecified) the T/C (dose: 3.0 mg/kg/injection, schedule: Q01DX009 (ip), vehicle: Klucel (hydroxypropylcellulose) (HPC)) was 92 % of control and the T/C (dose: 6.0 mg/kg/injection, schedule: Q01DX009 (ip), vehicle: Klucel (hydroxypropylcellulose) (HPC)) was 101 % of control.

For `O=C(C[n+]1ccccc1)c1ccccc1`, the T/C (dose: 12.5 mg/kg/injection, schedule: Q01DX009 (ip), vehicle: saline) was 105 % of control, the T/C (dose: 25.0 mg/kg/injection, schedule: Q01DX009 (ip), vehicle: saline) was 104 % of control and the T/C [8] was 96 % of control.

In the case of `Nc1ccc(NC(=O)c2ccc([N+](=O)[O-])cc2)cc1`, the T/C (dose: 25.0 mg/kg/injection, schedule: Q01DX009 (ip), vehicle: other) is reported as 115 % of control, the T/C (dose: 50.0 mg/kg/injection, schedule: Q01DX009 (ip), vehicle: other) is reported as 112 % of control and the T/C (dose: 100.0 mg/kg/injection, schedule: Q01DX009 (ip), vehicle: other) is reported as 106 % of control. For the same molecule, the T/C (dose: 200.0 mg/kg/injection, schedule: Q01DX009 (ip), vehicle: other) was 115 % of control and the T/C (dose: 400.0 mg/kg/injection, schedule: Q01DX009 (ip), vehicle: other) was 123 % of control.

In the case of `CC1CC2OC2/C=C\C=C\C(=O)Cc2c(Cl)c(O)cc(O)c2C(=O)O1` (stereo unspecified), the T/C (dose: 6.25 mg/kg/injection, schedule: Q01DX009 (ip), vehicle: Klucel (hydroxypropylcellulose) (HPC)) is reported as 107 % of control, the T/C (dose: 12.5 mg/kg/injection, schedule: Q01DX009 (ip), vehicle: Klucel (hydroxypropylcellulose) (HPC)) is reported as 108 % of control and the T/C (dose: 25.0 mg/kg/injection, schedule: Q01DX009 (ip), vehicle: Klucel (hydroxypropylcellulose) (HPC)) is reported as 110 % of control. The T/C [5] was 109 % of control.

In the case of `CC(=O)N(O)c1ccc2c(c1)Cc1cc(F)ccc1-2`, the T/C [2] is reported as 110 % of control and 121 % of control, the T/C [3] is reported as 120 % of control and the T/C [4] is reported as 123 % of control. The T/C (dose: 400.0 mg/kg/injection, schedule: Q01DX005 (ip), vehicle: saline with Tween-80) was 116 % of control.

`COc1cc2c(cc1C(C)c1cc(OC)c(OC)c(OC)c1)OCO2` (stereo unspecified) was tested, and the T/C [9] was 99 % of control, the T/C [10] was 97 % of control and the T/C [11] was 91 % of control.

For `COc1ccc(CC2C(=O)NC(C)C(=O)N(C)C3C(=O)N(C)C(Cc4ccc(O)c(c4)Oc4ccc(cc4)C3O)C(=O)NC(C)C(=O)NC(C)C(=O)N2C)cc1` (stereo unspecified) (tested in a mixture with another compound), the T/C (dose: 1.0 mg/kg/injection, schedule: Q01DX009 (ip), vehicle: Klucel (hydroxypropylcellulose) (HPC)) was 158 % of control, the T/C (dose: 2.0 mg/kg/injection, schedule: Q01DX009 (ip), vehicle: Klucel (hydroxypropylcellulose) (HPC)) was 158 % of control and the T/C (dose: 4.0 mg/kg/injection, schedule: Q01DX009 (ip), vehicle: Klucel (hydroxypropylcellulose) (HPC)) was 155 % of control. For the same molecule, the T/C (dose: 250.0 micrograms/kg/injection, schedule: Q01DX009 (ip), vehicle: saline) was 156 % of control, the T/C (dose: 500.0 micrograms/kg/injection, schedule: Q01DX009 (ip), vehicle: saline) was 152 % of control and the T/C (dose: 1000.0 micrograms/kg/injection, schedule: Q01DX009 (ip), vehicle: saline) was 158 % of control.

With `CC(=O)Oc1ccccc1C(=O)OC1CCN(C(C)C)C1` (stereo unspecified) the T/C (dose: 100.0 mg/kg/injection, schedule: Q04DX003 (ip), vehicle: saline) was 100 % of control and the T/C (dose: 200.0 mg/kg/injection, schedule: Q04DX003 (ip), vehicle: saline) was 95 % of control.

In the case of `Cc1cc(NC(=S)SCc2ccc(Cl)cc2)ccc1Cl`, the T/C [5] is reported as 103 % of control and 118 % of control, the T/C (dose: 50.0 mg/kg/injection, schedule: Q01DX009 (ip), vehicle: suspension in saline) is reported as 97 % of control and the T/C (dose: 100.0 mg/kg/injection, schedule: Q01DX009 (ip), vehicle: suspension in saline) is reported as 92 % of control. For the same molecule, the T/C (dose: 200.0 mg/kg/injection, schedule: Q01DX009 (ip), vehicle: suspension in saline) was 96 % of control.

For `CC(=O)NC1C(OC(C)=O)C(OC(C)=O)C(COC(C)=O)OC1[N+](=O)[O-]` (stereo unspecified), the T/C [1] was 101 % of control, the T/C (dose: 120.0 mg/kg/injection, schedule: Q01DX005 (ip), vehicle: saline with Tween-80) was 94 % of control and the T/C (dose: 240.0 mg/kg/injection, schedule: Q01DX005 (ip), vehicle: saline with Tween-80) was 99 % of control.

For `CCCCCCCCCCCC(=O)OCCN(C=O)C[n+]1ccccc1`, the T/C (dose: 25.0 mg/kg/injection, schedule: Q04DX002 (ip), vehicle: saline) was 98 % of control, the T/C (dose: 50.0 mg/kg/injection, schedule: Q04DX002 (ip), vehicle: saline) was 96 % of control and the T/C (dose: 100.0 mg/kg/injection, schedule: Q04DX002 (ip), vehicle: saline) was 91 % of control.

For `[NH-]NC(=S)[S-].[NH-]NC(=S)[S-].[Pt+4]`, the T/C (dose: 12.5 mg/kg/injection, schedule: Q04DX003 (ip), vehicle: Klucel (hydroxypropylcellulose) (HPC)) was 103 % of control, the T/C (dose: 25.0 mg/kg/injection, schedule: Q04DX003 (ip), vehicle: Klucel (hydroxypropylcellulose) (HPC)) was 100 % of control and the T/C (dose: 50.0 mg/kg/injection, schedule: Q04DX003 (ip), vehicle: Klucel (hydroxypropylcellulose) (HPC)) was 109 % of control.

`COc1c(CNC(=O)CCl)cc2[nH]c(C)cc2c1CNC(=O)CCl` was tested, and the T/C [6] was 153 % of control and the T/C [7] was 150 % of control.

For `COC(=O)C(CO)NC(=O)C(CO)NC(=O)OCc1ccccc1` (stereo not drawn) (Cbz-Ser-Ser-OMe; configuration not given here), the T/C [9] was 100 % of control, the T/C [10] was 98 % of control and the T/C [11] was 101 % of control.
